Laboratory results published in ChEMBL document CHEMBL4765321, “Discovery of new thieno[3,2-d]pyrimidine derivatives targeting EGFR NSCLCs by the conformation constrained strategy” (Eur J Med Chem, 2020).
Active and inactive are the calls of the source. The calls are words filed in the database; no cut-off is given here.

What was measured:
[1] = molecular target: Epidermal growth factor receptor (Homo sapiens, UniProt P00533, L858R/T790M); experiment: Inhibition of N-terminal GST-fused human EGFR L858R/T790M double mutant cytoplasmic domain (669 to 1210 residues) expressed in baculovirus expression system using 5-FAM-EEPLYWSFPAKKK-CONH2 as substrate incubated for 20 mins by Mobility shift assay
[2] = molecular target: T1, Epidermal growth factor receptor (Homo sapiens, UniProt P00533); experiment: Inhibition of N-terminal GST-fused human wild type EGFR cytoplasmic domain (669 to 1210 residues) expressed in baculovirus expression system using 5-FAM-EEPLYWSFPAKKK-CONH2 as substrate incubated for 20 mins by Mobility shift assay
[3] = tested on: Epidermal growth factor receptor (Homo sapiens), P00533 [L858R,T790M]; experiment: Inhibition of N-terminal GST-fused human EGFR L858R/T790M double mutant cytoplasmic domain (669 to 1210 residues) expressed in baculovirus expression system using 5-FAM-EEPLYWSFPAKKK-CONH2 as substrate at 1 uM incubated for 20 mins by Mobility shift assay
L02 = experiment: Cytotoxicity against human L0-2 cells assessed as reduction in cell viability measured after 72 hrs by MTT assay; type: ADME, cell-based; settings: L02, 72 h
PC-9 = experiment: Antiproliferative activity against human PC9 cells harboring EGFRdel19 mutant assessed as reduction in cell viability measured after 72 hrs by MTT assay; type: functional, cell-based; settings: PC-9, 72 h
Homo sapiens = species on record: Homo sapiens; experiment: Selectivity index, ratio of IC50 for N-terminal GST-fused human wild type EGFR cytoplasmic domain (669 to 1210 residues) expressed in baculovirus expression system to IC50 for N-terminal GST-fused human EGFR L858R/T790M double mutant cytoplasmic domain (669 to 1210 residues) expressed in baculovirus expression system
NCI-H1975 [4] = experiment: cells; type: functional, cell-based; settings: Homo sapiens, NCI-H1975, 72 h
A549 [5] = experiment: Antiproliferative activity against human A549 cells harboring wild type EGFR assessed as reduction in cell viability measured after 72 hrs by MTT assay; type: cell-based; settings: A549, 72 h
[6] = tested on: Epidermal growth factor receptor (Homo sapiens), P00533 [L858R,T790M]; experiment: Inhibition of EGF-induced phosphorylation of EGFR L858R/T790M double mutant in human H1975 cells at 3 uM incubated for 2 hrs followed by EGF stimulation for 10 mins by western blot analysis; type: cell-based; settings: NCI-H1975, time 130.0 min
A549 [7] = experiment: Inhibition of colony formation in human A549 cells at 0.31 to 2.5 uM measured after 10 days by crystal violet staining based ELISA; type: cell-based; settings: a549, 240 h, dose 0.31-2.5 µM, time 10 day
[8] = tested on: Epidermal growth factor receptor (Homo sapiens), P00533 [L858R,T790M]; experiment: Inhibition of EGF-induced phosphorylation of EGFR L858R/T790M double mutant in human H1975 cells incubated for 2 hrs followed by EGF stimulation for 10 mins by western blot analysis; type: cell-based; settings: NCI-H1975, dose 1-10 µM, time 130.0 min
[9] = tested on: Epidermal growth factor receptor (Homo sapiens), P00533 [L858R,T790M]; experiment: Inhibition of EGFR L858R/T790M double mutant in human H1975 cells assessed as inhibition of EGF-induced ERK phosphorylation at 10 uM incubated for 2 hrs followed by EGF stimulation for 10 mins by western blot analysis; type: cell-based; settings: NCI-H1975, time 130.0 min
[10] = molecular target: T1, Epidermal growth factor receptor; experiment: Inhibition of EGFR in human A549 cells assessed as inhibition of ERK phosphorylation at 1 to 10 uM incubated for 2 hrs followed by EGF stimulation for 10 mins by western blot analysis; type: cell-based; settings: a549, 2.167 h, dose 1-10 µM, time 130 min
[11] = tested on: Epidermal growth factor receptor (Homo sapiens), P00533 [L858R,T790M]; experiment: Binding affinity to EGFR L858R/T790M double mutant in human H1975 cells assessed as increase in protein signal at 50 uM incubated for 4 hrs followed by heating from 40 to 64 degC for 5 mins by CETSA based western blot analysis; type: cell-based; settings: NCI-H1975, time 245.0 min
[12] = tested on: Epidermal growth factor receptor (Homo sapiens), P00533 [L858R,T790M]; experiment: Inhibition of EGFR L858R/T790M double mutant in human H1975 cells assessed as inhibition of EGF-induced ERK phosphorylation at 1 uM incubated for 2 hrs followed by EGF stimulation for 10 mins by western blot analysis; type: cell-based; settings: NCI-H1975, time 130.0 min
[13] = tested on: Epidermal growth factor receptor (Homo sapiens), P00533 [L858R,T790M]; experiment: Inhibition of EGFR L858R/T790M double mutant in human H1975 cells assessed as inhibition of EGF-induced ERK phosphorylation incubated for 2 hrs followed by EGF stimulation for 10 mins by western blot analysis; type: cell-based; settings: NCI-H1975, dose 1-10 µM, time 130.0 min
NCI-H1975 [14] = experiment: Inhibition of cell migration in human H1975 cells at 0.5 to 5 uM incubated for 48 hrs by scratch wound healing assay; type: functional, cell-based; settings: dose 0.5-5 µM
[15] = tested on: Epidermal growth factor receptor (Homo sapiens), P00533 [L858R,T790M]; experiment: Inhibition of EGFR L858R/T790M double mutant in human H1975 cells assessed as inhibition of EGF-induced ERK phosphorylation at 3 uM incubated for 2 hrs followed by EGF stimulation for 10 mins by western blot analysis; type: cell-based; settings: NCI-H1975, time 130.0 min
[16] = tested on: Epidermal growth factor receptor (Homo sapiens), P00533 [L858R,T790M]; experiment: Inhibition of EGF-induced phosphorylation of EGFR L858R/T790M double mutant in human H1975 cells at 1 uM incubated for 2 hrs followed by EGF stimulation for 10 mins by western blot analysis; type: cell-based; settings: NCI-H1975, time 130.0 min
NCI-H1975 [17] = experiment: Inhibition of colony formation in human H1975 cells measured after 10 days by crystal violet staining based ELISA; type: functional, cell-based; settings: dose 0.31-2.5 µM, time 10.0 day
A549 [18] = experiment: Inhibition of cell migration in human A549 cells at 5 uM incubated for 48 hrs by scratch wound healing assay; type: cell-based; settings: a549, 48 h
[19] = molecular target: T1, Epidermal growth factor receptor; experiment: Binding affinity to wild type EGFR in human A549 cells assessed as increase in protein signal at 50 uM incubated for 4 hrs followed by heating from 40 to 64 degC for 5 mins by CETSA based western blot analysis; type: cell-based; settings: a549, 4.083 h, time 245 min
[20] = tested on: Epidermal growth factor receptor (Homo sapiens), P00533 [L858R,T790M]; experiment: Inhibition of EGF-induced phosphorylation of EGFR L858R/T790M double mutant in human H1975 cells at 10 uM incubated for 2 hrs followed by EGF stimulation for 10 mins by western blot analysis; type: cell-based; settings: NCI-H1975, time 130.0 min
[21] = molecular target: T1, Epidermal growth factor receptor; experiment: Inhibition of EGFR phosphorylation in human A549 cells at 1 to 10 uM incubated for 2 hrs followed by EGF stimulation for 10 mins by western blot analysis; type: cell-based; settings: a549, 2.167 h, dose 1-10 µM, time 130 min

| SMILES | IC50 [1] | IC50 [2] | inhibition [3] | IC50 (L02) | IC50 (PC-9) | Ratio IC50 (Homo sapiens) | IC50 (NCI-H1975 [4]) | IC50 (A549 [5]) | also measured |
| --- | --- | --- | --- | --- | --- | --- | --- | --- | --- |
| O=c1ccc2ccc(Oc3nc(Nc4ccc(N5CCOCC5)c(F)c4)nc4ccsc34)cc2[nH]1 | > 1 µM | > 10 µM | 39% | – | – | – | – | – | – |
| O=c1ccc2ccc(Oc3nc(Nc4ccc(N5CCC(N6CCCCC6)CC5)cc4)nc4ccsc34)cc2[nH]1 | – | > 10 µM | 83% | – | – | – | – | – | – |
| CCN1CCN(c2nc(Oc3ccc4ccc(=O)[nH]c4c3)c3sccc3n2)CC1 | > 1 µM | > 10 µM | inactive | > 20 µM | – | – | – | – | – |
| COc1cc(N2CCN(C)CC2)ccc1Nc1nc(Oc2ccc3ccc(=O)[nH]c3c2)c2sccc2n1 | 0.33 µM | > 10 µM | 74% | 6.76 µM | 22.1 µM | > 30 | 6.95 µM | > 20 µM | – |
| O=c1ccc2ccc(Oc3nc(Nc4ccc(N5CCOCC5)cc4)nc4ccsc34)cc2[nH]1 | – | > 10 µM | 56% | 12.5 µM | – | – | – | – | – |
| CCN1CCN(c2ccc(Nc3nc(Oc4ccc5ccc(=O)[nH]c5c4)c4sccc4n3)c(OC)c2)CC1 | 0.33 µM | > 10 µM | 75% | 4.4 µM | 24.8 µM | > 30 | 10.1 µM | > 20 µM | – |
| O=c1ccc2ccc(Oc3nc(Nc4ccc(F)cc4)nc4ccsc34)cc2[nH]1 | > 1 µM | > 10 µM | 8% | – | – | – | – | – | – |
| COc1cccc(Nc2nc(Oc3ccc4ccc(=O)[nH]c4c3)c3sccc3n2)c1 | > 1 µM | > 10 µM | 22% | – | – | – | – | – | – |
| CN1CCN(c2ccc(Nc3nc(Oc4ccc5ccc(=O)[nH]c5c4)c4sccc4n3)nc2)CC1 | > 1 µM | > 10 µM | 32% | > 20 µM | – | – | – | > 20 µM | – |
| CN1CCN(c2ccc(Nc3nc(Oc4ccc5ccc(=O)[nH]c5c4)c4sccc4n3)cc2)CC1 | 0.25 µM | > 10 µM | 82% | > 50 µM | 5.78 µM | > 40 | 4.15 µM | 3.46 µM | – |
| CN1CCN(c2ccc(Nc3nc(Oc4ccc5ccc(=O)[nH]c5c4)c4sccc4n3)cc2F)CC1 | – | > 10 µM | 82% | 8.37 µM | > 50 µM | – | 14.5 µM | > 20 µM | – |
| C=CC(=O)Nc1cccc(Oc2nc(Nc3ccc(N4CCN(C)CC4)cc3)nc3ccsc23)c1 [OLMUTINIB] | – | – | – | 0.026 µM | 16.5 µM | – | 9.61 µM | – | – |
| O=c1ccc2ccc(Oc3nc(Nc4ccc(CN5CCOCC5)cc4)nc4ccsc34)cc2[nH]1 | – | > 10 µM | 60% | – | – | – | – | – | – |
| CN(C)CCNc1ccc(Nc2nc(Oc3ccc4ccc(=O)[nH]c4c3)c3sccc3n2)cc1F | 0.23 µM | 14 µM | 81% | 3.2 µM | 16 µM | 61 | 10.8 µM | 2.92 µM | inhibition [6]: 43%; Activity (A549 [7]): Toxic; inhibition [8]: Dose-dependent effect; inhibition [9]: 66%; inhibition (INH) [10]: Not Active; Activity [11]: Active; inhibition [12]: 5%; inhibition [13]: Dose-dependent effect; inhibition (NCI-H1975 [14]): Active; inhibition [15]: 53%; inhibition [16]: 34%; inhibition (NCI-H1975 [17]): Dose-dependent effect; Activity (A549 [18]): Non-Toxic; Activity [19]: Not Active; inhibition [20]: 89%; inhibition (INH) [21]: Not Active |
| O=c1ccc2ccc(Oc3nc(Nc4ccc(N5CCC(N6CCCCC6)CC5)c(F)c4)nc4ccsc34)cc2[nH]1 | 0.11 µM | 12.4 µM | 87% | 5.6 µM | 16.7 µM | 113 | 10.9 µM | 10.4 µM | Activity [11]: Active; Activity [19]: Not Active |
| O=c1ccc2ccc(Oc3nc(Nc4ccc(N5CCS(=O)(=O)CC5)cc4)nc4ccsc34)cc2[nH]1 | – | > 10 µM | 64% | – | – | – | – | – | – |
| CN1CCN(Cc2ccc(Nc3nc(Oc4ccc5ccc(=O)[nH]c5c4)c4sccc4n3)cc2)CC1 | 0.2 µM | > 10 µM | 83% | 7.99 µM | 19.3 µM | > 50 | 10.8 µM | 8.08 µM | – |
| C#Cc1cccc(Nc2ncnc3cc(OCCOC)c(OCCOC)cc23)c1 [ERLOTINIB] | – | – | – | 7.25 µM | > 50 µM | – | > 20 µM | – | – |
| CCN1CCN(Cc2ccc(Nc3nc(Oc4ccc5ccc(=O)[nH]c5c4)c4sccc4n3)cc2)CC1 | 0.24 µM | > 10 µM | 81% | 5.23 µM | 17.5 µM | > 42 | 10.1 µM | 5.34 µM | – |
| CN1CCN(c2nc(Oc3ccc4ccc(=O)[nH]c4c3)c3sccc3n2)CC1 | > 1 µM | – | inactive | – | – | – | – | – | – |
